System: iPSCs
Assay: ZO-1 immunocytochemical staining, efficiency of direct differentiation of iPSCs into CECs
Assay type: cell-based, human
Conditions: concluded from culture media that omit the constituent (Examples 3-4 to 3-7)
Procedure: To compare the effect on differentiation efficiency using ZO-1 marker staining of iPSC-derived CECs, CECs were fixed in 4% paraformaldehyde for 30 minutes, washed with PBS buffer, permeabilized with 0.5% Triton X-100, and blocked in PBST containing 1% bovine serum albumin (Sigma-Aldrich). […] Nuclei were counterstained for 10 minutes with 4′,6-diamidino-2-phenylindole (DAPI; Sigma-Aldrich), and fluorescence signals were detected using a laser scanning confocal microscope (Olympus, Tokyo, Japan) or a fluorescence microscope (EVOS, Life Technologies).

| SMILES | role of the constituent in direct differentiation from iPSCs into CECs |
| --- | --- |
| Cc1cncc2cccc(S(=O)(=O)N3CCCNC[C@@H]3C)c12 [Example H-1152, (2S)-2-methyl-1-[(4-methyl-5-isoquinolinyl)sulfonyl]hexahydro-1H-1,4-diazepine] | important |
| O=S(=O)(c1cccc2cnccc12)N1CCCNCC1 [Fasudil, fasudil] | important |
| NC(=O)c1ccc(-c2nc(-c3ccc4c(c3)OCO4)c(-c3ccccn3)[nH]2)cc1 [SB431542, 4-[4-(2H-1,3-benzodioxol-5-yl)-5-(pyridin-2-yl)-1H-imidazol-2-yl]benzamide] | important |
